Values quoted from earlier work in patent US20080160065A1 (priority 2006, published 2008).
Where two headings read alike, the source gives them in different places.

Conditions: injected intramuscularly

For CCC[C@@H]1C[C@@H](C(=O)N[C@@H]([C@H]2O[C@H](SC)[C@H](O)[C@@H](O)[C@H]2O)[C@H](C)Cl)N(C)C1 [clindamycin], the “time to peak plasma concentration” value (adults) is given as 2 h and the “time to peak plasma concentration” value (children) is given as 1 h.
